≈ marks a conversion by molar mass, not a printed value. Calls of active or inactive are those of the source. The calls are words filed in the database; no cut-off is given here.
Columns and labels:
Staphylococcus aureus [1] = experiment: Antibacterial activity against methicillin-resistant Staphylococcus aureus assessed growth inhibition by micro broth dilution method; format: functional
Staphylococcus aureus [2] = experiment: Antibacterial activity against Staphylococcus aureus assessed growth inhibition by micro broth dilution method; format: functional
Staphylococcus aureus [3] = experiment: Antibacterial activity against Staphylococcus aureus ATCC 25923 assessed growth inhibition by micro broth dilution method; format: functional
Staphylococcus aureus [4] = experiment: Antibacterial activity against Staphylococcus aureus ATCC 29213 assessed growth inhibition by micro broth dilution method; format: functional
Enterococcus faecalis = experiment: Antibacterial activity against Enterococcus faecalis assessed growth inhibition by micro broth dilution method; format: functional
Klebsiella pneumoniae [5] = experiment: Antibacterial activity against Klebsiella pneumonia assessed growth inhibition by micro broth dilution method; format: functional
Escherichia coli [6] = experiment: Antibacterial activity against Escherichia coli assessed growth inhibition by micro broth dilution method; format: functional
Escherichia coli [7] = experiment: Antibacterial activity against Escherichia coli ATCC 25922 assessed growth inhibition by micro broth dilution method; format: functional
Pseudomonas aeruginosa [8] = experiment: Antibacterial activity against Pseudomonas aeruginosa assessed growth inhibition by micro broth dilution method; format: functional
Pseudomonas aeruginosa [9] = experiment: Antibacterial activity against Pseudomonas aeruginosa ATCC 27853 assessed growth inhibition by micro broth dilution method; format: functional
Acinetobacter baumannii = experiment: Antibacterial activity against Acinetobacter baumannii assessed growth inhibition by micro broth dilution method; format: functional
[10] = Hemolytic activity in human RBC assessed as hemolytic rate incubated measured upto 64 ug/ml; format: toxicity, cell-based, Erythrocyte; conditions: human red blood cells (erythrocytes), up to 64 µg/mL, read-out: Activity
Klebsiella pneumoniae [11] = experiment: In vivo anti-infective effect against Klebsiella pneumonia p1-6305014 infected in mouse model assessed as reduction bacterial growth at 5 mg/kg; format: functional
Klebsiella pneumoniae [12] = experiment: In vivo anti-infective effect against Klebsiella pneumonia p1-6305014 infected in mouse model assessed as reduction bacterial growth at 15 mg/kg; format: functional
[13] = Thermodynamic solubility of the compound in water; format: physicochemical; conditions: read-out: Therm_solubility
Erythrocyte = experiment: Hemolytic activity in human RBC incubated measured upto 128 ug/ml; format: toxicity, cell-based; conditions: dose < 128 µg/ml
[14] = Cytotoxicity against human NOK cells assessed as cell viability at 8 ug/ml; format: toxicity, cell-based; conditions: nok-si, dose 8 µg/ml
[15] = Cytotoxicity against human FHC cells assessed as cell viability at 8 ug/ml; format: toxicity, cell-based; conditions: at 8 µg/mL, read-out: Activity
[16] = Tmax in mouse at 10 mg/kg, po; format: ADME, organism-based; conditions: in vivo
[17] = Cmax in mouse at 10 mg/kg, po; format: ADME, organism-based; conditions: in vivo
[18] = AUC (0 to t) in mouse at 10 mg/kg, po; format: ADME, organism-based; conditions: in vivo
[19] = AUC (0 to infinity) in mouse at 10 mg/kg, po; format: ADME, organism-based; conditions: in vivo
[20] = Half life in mouse at 10 mg/kg, po; format: ADME, organism-based; conditions: in vivo
[21] = Apparent volume of distribution in mouse at 10 mg/kg, po; format: ADME, organism-based; conditions: in vivo
[22] = Clearance in mouse at 10 mg/kg, po; format: ADME, organism-based; conditions: in vivo
[23] = AUMC (0 to t) in mouse at 10 mg/kg, po; format: ADME, organism-based; conditions: in vivo
[24] = AUMC (0 to infinity) in mouse at 10 mg/kg, po; format: ADME, organism-based; conditions: in vivo
[25] = MRT (0 to t) in mouse at 10 mg/kg, po; format: ADME, organism-based; conditions: in vivo
[26] = MRT (0 to infinity) in mouse at 10 mg/kg, po; format: ADME, organism-based; conditions: in vivo
[27] = Oral bioavailability in mouse at 10 mg/kg; format: ADME, organism-based; conditions: in vivo
[28] = Tmax in mouse at 10 mg/kg, iv; format: ADME, organism-based; conditions: in vivo
[29] = Cmax in mouse at 10 mg/kg, iv; format: ADME, organism-based; conditions: in vivo
[30] = Initial plasma concentration in mouse at 10 mg/kg, iv; format: ADME, organism-based; conditions: in vivo
[31] = AUC (0 to t) in mouse at 10 mg/kg, iv; format: ADME, organism-based; conditions: in vivo
[32] = AUC (0 to infinity) in mouse at 10 mg/kg, iv; format: ADME, organism-based; conditions: in vivo
[33] = Half life in mouse at 10 mg/kg, iv; format: ADME, organism-based; conditions: in vivo
[34] = Volume of distribution at steady state in mouse at 10 mg/kg, iv; format: ADME, organism-based; conditions: in vivo
[35] = Clearance in mouse at 10 mg/kg, iv; format: ADME, organism-based; conditions: in vivo
[36] = AUMC (0 to t) in mouse at 10 mg/kg, iv; format: ADME, organism-based; conditions: in vivo
[37] = AUMC (0 to infinity) in mouse at 10 mg/kg, iv; format: ADME, organism-based; conditions: in vivo
[38] = MRT (0 to t) in mouse at 10 mg/kg, iv; format: ADME, organism-based; conditions: in vivo
[39] = MRT (0 to infinity) in mouse at 10 mg/kg, iv; format: ADME, organism-based; conditions: in vivo
Staphylococcus aureus [40] = experiment: Anti-biofilm activity against Staphylococcus aureus ATCC 29213 assessed as relative biofilm clearance rate at 8 times of MIC by crystal violet staining based assay; format: functional
Klebsiella pneumoniae [41] = experiment: Anti-biofilm activity against Klebsiella pneumonia assessed as relative biofilm clearance rate at 8 times of MIC by crystal violet staining based assay; format: functional
Staphylococcus aureus [42] = experiment: Bactericidal activity against Staphylococcus aureus ATCC 29213 assessed as time dependent killing at 4 times of MIC measured at 8 hrs; format: functional, organism-based
Klebsiella pneumoniae [43] = experiment: Bactericidal activity against Klebsiella pneumonia assessed as time dependent killing at 4 times of MIC measured at 8 hrs; format: functional, organism-based
Staphylococcus aureus [44] = experiment: Induction of resistance development in Staphylococcus aureus ATCC 29213 assessed as after 20 passages measured upto 4.5 times of MIC; format: functional
Klebsiella pneumoniae [45] = experiment: Induction of resistance development in Klebsiella pneumonia assessed as after 20 passages measured upto 4.5 times of MIC; format: functional
Staphylococcus aureus [46] = experiment: Anti-biofilm activity against Staphylococcus aureus ATCC 29213 assessed as relative biofilm clearance rate by crystal violet staining based assay; format: functional, organism-based
Klebsiella pneumoniae [47] = experiment: Anti-biofilm activity against Klebsiella pneumonia assessed as relative biofilm clearance rate by crystal violet staining based assay; format: functional, organism-based
Cell membrane [48] = experiment: Induction of outer membrane permeability in Klebsiella pneumonia assessed as increase in fluorescence intensity at 2 times of MIC by N-phenyl naphthylamine (NPN) dye based assay; format: cell membranes; conditions: Klebsiella pneumoniae
Cell membrane [49] = experiment: Induction of inner membrane permeability in Staphylococcus aureus ATCC 29213 assessed as increase in fluorescence intensity by propidium iodide uptake based microscopic imaging assay; format: cell membranes
Cell membrane [50] = experiment: Induction of inner membrane permeability in Klebsiella pneumonia assessed as increase in fluorescence intensity by propidium iodide uptake based microscopic imaging assay; format: cell membranes; conditions: Klebsiella pneumoniae
Cell membrane [51] = experiment: Induction of cytoplasmic membrane depolarization in Staphylococcus aureus ATCC 29213 assessed as increase in fluorescence intensity at 2 times of MIC measured upto 40 mins by DiSC35 dye based fluorescence method; format: cell membranes
Cell membrane [52] = experiment: Induction of cytoplasmic membrane depolarization in Klebsiella pneumonia assessed as increase in fluorescence intensity at 2 times of MIC measured upto 40 mins by DiSC35 dye based fluorescence method; format: cell membranes; conditions: Klebsiella pneumoniae, DISRUPTING AGENT
Cell membrane [53] = experiment: Induction of disruption of membrane integrity in Staphylococcus aureus ATCC 29213 assessed as leakage of intracellular proteins by Acid Blue 90 based assay; format: cell membranes
Cell membrane [54] = experiment: Induction of disruption of membrane integrity in Klebsiella pneumonia assessed as leakage of intracellular proteins by Acid Blue 90 based assay; format: cell membranes; conditions: Klebsiella pneumoniae
Calf thymus DNA [55] = experiment: Binding affinity to calf thymus DNA assessed as change in absorption measuring hyperchromism by UV-Vis absorption spectra analysis; format: nucleic-acid assay; conditions: Bos taurus
Calf thymus DNA [56] = experiment: Induction of calf thymus DNA double helix loss assessed as reduction in fluorescence intensity at 525 nm wavelength by acridine orange competition based assay; format: nucleic-acid assay; conditions: Bos taurus
Staphylococcus aureus [57] = experiment: Induction of ROS generation in Staphylococcus aureus ATCC 29213 assessed as increase in fluorescence intensity by DCFH-DA based microscopic analysis; format: functional, organism-based
Klebsiella pneumoniae [58] = experiment: Induction of ROS generation in Klebsiella pneumonia assessed as increase in fluorescence intensity by DCFH-DA based microscopic analysis; format: functional, organism-based
Staphylococcus aureus [59] = experiment: Induction of ROS generation in Staphylococcus aureus ATCC 29213 assessed as loss of GSH activity by Ellmans method; format: functional, organism-based
Klebsiella pneumoniae [60] = experiment: Induction of ROS generation in Klebsiella pneumonia assessed as loss of GSH activity by Ellmans method; format: functional, organism-based
Staphylococcus aureus [61] = experiment: Antibacterial activity against Staphylococcus aureus ATCC 29213 assessed as decrease in relative metabolic activity at 4 times of MIC by Alamar Blue assays; format: functional, organism-based
Klebsiella pneumoniae [62] = experiment: Antibacterial activity against Klebsiella pneumonia assessed as decrease in relative metabolic activity at 4 times of MIC by Alamar Blue assays; format: functional, organism-based

CCCCCCCCn1cc(C(=O)OCC)c(=O)c2cc(F)c(C(C#N)C(=O)OCC)cc21 (stereo unspecified)
MIC (Staphylococcus aureus [1]): 8 µg/mL (≈ 17.4 µM) | MIC (Staphylococcus aureus [2]): 8 µg/mL (≈ 17.4 µM) | MIC (Staphylococcus aureus [3]): 1 µg/mL (≈ 2.18 µM) | MIC (Staphylococcus aureus [4]): 0.5 µg/mL (≈ 1.09 µM) | MIC (Enterococcus faecalis): 4 µg/mL (≈ 8.72 µM) | MIC (Klebsiella pneumoniae [5]): 0.5 µg/mL (≈ 1.09 µM) | MIC (Escherichia coli [6]): 2 µg/mL (≈ 4.36 µM) | MIC (Escherichia coli [7]): 2 µg/mL (≈ 4.36 µM) | MIC (Pseudomonas aeruginosa [8]): 0.5 µg/mL (≈ 1.09 µM) | MIC (Pseudomonas aeruginosa [9]): 0.5 µg/mL (≈ 1.09 µM) | MIC (Acinetobacter baumannii): 0.5 µg/mL (≈ 1.09 µM) | hemolysis [10]: 50%

CCCCCCCCn1cc(C(=O)OCC)c(=O)c2cc(F)c([C-](C#N)C(=O)OCC)cc21.[Na+] (stereo unspecified)
MIC (Staphylococcus aureus [1]): 8 µg/mL | MIC (Staphylococcus aureus [2]): 16 µg/mL | MIC (Staphylococcus aureus [3]): 0.25 µg/mL | MIC (Staphylococcus aureus [4]): 0.25 µg/mL | MIC (Enterococcus faecalis): 4 µg/mL | MIC (Klebsiella pneumoniae [5]): 0.25 µg/mL | MIC (Escherichia coli [6]): 0.25 µg/mL | MIC (Escherichia coli [7]): 0.25 µg/mL | MIC (Pseudomonas aeruginosa [8]): 0.5 µg/mL | MIC (Pseudomonas aeruginosa [9]): 0.5 µg/mL | MIC (Acinetobacter baumannii): 0.25 µg/mL | Activity (Klebsiella pneumoniae [11]): 1.5 log10CFU | Activity (Klebsiella pneumoniae [12]): 4 log10CFU | solubility thermodynamic [13]: 27.5 µg/mL | Activity (Erythrocyte): Non-Toxic | Activity [14]: Non-Toxic | viability at 8 ug/ml [15]: 70% | Tmax [16]: 30 min | Cmax [17]: 89 ng/mL | AUC(0-t) [18]: 196 ng·h/mL | AUC [19]: 241 ng·h/mL | half-life [20]: 133 min | Vz [21]: 133.561 L/kg | CL/F [22]: 698 mL/min/kg | AUMCt [23]: 523 hr.hr.ng/ml | AUMC [24]: 1035 hr.hr.ng/ml | MRT last [25]: 161 min | MRT [26]: 250 min | F [27]: 26.6% | Tmax [28]: 1.98 min | Cmax [29]: 549 ng/mL | C0 [30]: 1046 ng/mL | AUC(0-t) [31]: 89.3 ng·h/mL | AUC [32]: 90.6 ng·h/mL | half-life [33]: 12 min | Vdss [34]: 1.976 L/kg | CL [35]: 191.07 mL/min/kg | AUMCt [36]: 13.3 hr.hr.ng/ml | AUMC [37]: 15 hr.hr.ng/ml | MRT last [38]: 9 min | MRT inf [39]: 10.2 min | Activity (Staphylococcus aureus [40]): 70% | Activity (Klebsiella pneumoniae [41]): 70%

CCOC(=O)c1cn(Cc2ccc(Cl)c(Cl)c2)c2cc(C(C#N)C(=O)OCC)c(F)cc2c1=O (stereo unspecified)
Activity (Staphylococcus aureus [42]): Active | Activity (Klebsiella pneumoniae [43]): Active | Activity (Staphylococcus aureus [44]): Active | Activity (Klebsiella pneumoniae [45]): Active | Activity (Staphylococcus aureus [46]): Dose-Dependent Effect | Activity (Klebsiella pneumoniae [47]): Dose-Dependent Effect | Activity (Cell membrane [48]): Dose-Dependent Effect | Activity (Cell membrane [49]): Dose-Dependent Effect | Activity (Cell membrane [50]): Dose-Dependent Effect | Activity (Cell membrane [51]): Active | Activity (Cell membrane [52]): Active | Activity (Cell membrane [53]): Dose-Dependent Effect | Activity (Cell membrane [54]): Dose-Dependent Effect | Activity (Calf thymus DNA [55]): Active | Activity (Calf thymus DNA [56]): Active | Activity (Staphylococcus aureus [57]): Dose-Dependent Effect | Activity (Klebsiella pneumoniae [58]): Dose-Dependent Effect | Activity (Staphylococcus aureus [59]): Dose-Dependent Effect | Activity (Klebsiella pneumoniae [60]): Dose-Dependent Effect | Activity (Staphylococcus aureus [61]): Active | Activity (Klebsiella pneumoniae [62]): Active
